Experimental findings from PubChem BioAssay (NCI) are described below.

For orientation: TGI means the concentration at which net growth stops. A higher TGI goes with lower sensitivity of the cells. As usually defined, the GI50 is the concentration giving 50% growth inhibition.

Among the test systems are CCRF-CEM leukemia; EKVX NSCLC; IGROV1 ovarian; MDA-MB-435; MOLT-4 leukemia; NCI-H226 lung; PC-3 prostate; SF-295 CNS; TK-10 renal; U251 CNS.
Test in all cases: DTP human tumour cell line panel, 48 h

Structures are written as SMILES. Where “and” joins values, the source holds several entries; their conditions need not be identical. Equal values may be shown once.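 Each compound was tested at five concentrations against cells in 96-well plates for 48 hours. Here, GI50 denotes the concentration required for 50% inhibition of growth. TGI: concentration producing complete growth inhibition.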

For the molecule `Nc1ccn(C2OC(COC(=O)C34CC5CC(CC(C5)C3)C4)C(O)C2O)c(=O)n1` (configuration not stated), the concentration for total growth inhibition (TGI) with CCRF-CEM leukemia was 1.87 µM; in the test on EKVX NSCLC it was above 100 µM; in the test with IGROV1 ovarian, above 100 µM; in the test on MDA-MB-435, above 100 µM; in the test on MOLT-4 leukemia, above 100 µM; in the test on NCI-H226 lung, above 100 µM. Besides, the concentration for total growth inhibition (TGI) with PC-3 prostate, in the test on SF-295 CNS, in the test on TK-10 renal and in the test with U251 CNS was above 100 µM in each case.

`COc1ccc(OC)c(-c2cc(-c3ccc(Cl)cc3)nn2-c2ccc(S(=O)(=O)NC(C)=O)cc2)c1`: the GI50 in the test with CCRF-CEM leukemia is 20 µM; in the test on EKVX NSCLC, 14.3 µM; in the test with IGROV1 ovarian, 37.2 µM; in the test with MDA-MB-435 it was 45.3 µM; in the test on MOLT-4 leukemia it was 5.62 µM; with NCI-H226 lung, 4.07 µM. For the same molecule, the GI50 was 3.61 µM in the test with PC-3 prostate, 42.8 µM in the test on SF-295 CNS, 19.3 µM in the test on TK-10 renal and 2.9 µM in the test on U251 CNS. In addition, the TGI with CCRF-CEM leukemia is 73.5 µM; with EKVX NSCLC, 28 µM; in the test with IGROV1 ovarian it was above 100 µM; with MDA-MB-435, above 100 µM; in the test with MOLT-4 leukemia, 27.8 µM; in the test on NCI-H226 lung, 23.1 µM. Besides, the total growth inhibition concentration (TGI) in the test with PC-3 prostate is 21.9 µM; with SF-295 CNS it was above 100 µM; with TK-10 renal it was 38.2 µM; in the test with U251 CNS, 10.3 µM.

As for `Cc1sc2c(c1C)C(c1ccc(Cl)cc1)=N[C@@H](CC(=O)OC(C)(C)C)c1nnc(C)n1-2`, the GI50 in the test on CCRF-CEM leukemia was 0.644 µM and 0.773 µM; with EKVX NSCLC it was 3.17 µM and 1.18 µM; in the test on IGROV1 ovarian, 0.808 µM and 0.645 µM; in the test on MDA-MB-435 it was 0.348 µM and 0.135 µM; in the test with MOLT-4 leukemia, 1.61 µM and 1.81 µM; in the test with NCI-H226 lung, 2.81 µM and 10.3 µM. Further, the GI50 with PC-3 prostate was 1.58 µM and 1.08 µM; in the test on SF-295 CNS, 0.365 µM and 0.182 µM; with TK-10 renal, 0.154 µM and 0.0583 µM; in the test on U251 CNS it was 2.45 µM and 1.24 µM. Moreover, the TGI in the test on CCRF-CEM leukemia was 23 µM and 22.9 µM; in the test on EKVX NSCLC, 20.5 µM and 18.2 µM; in the test with IGROV1 ovarian it was 25 µM and 18.9 µM; with MDA-MB-435 it was 20.3 µM and 17 µM; with MOLT-4 leukemia, 23 µM and 17.8 µM; in the test on NCI-H226 lung it was 22 µM and 22.8 µM. Moreover, the concentration for total growth inhibition (TGI) was 24.6 µM and 16.7 µM in the test with PC-3 prostate; 18.2 µM and 15.5 µM in the test on SF-295 CNS; 12.7 µM and 13.4 µM in the test with TK-10 renal; 20.6 µM and 19 µM in the test on U251 CNS.

In the case of `CN1C(=O)N[C@H]2[C@@H]3NC(=O)c4ccc(Br)n4[C@@H]3C[C@]21O`, the GI50 in the test on CCRF-CEM leukemia is 0.0252 µM; in the test with EKVX NSCLC, 0.868 µM; in the test with IGROV1 ovarian, 0.0617 µM; with MDA-MB-435, 0.156 µM; in the test with MOLT-4 leukemia, 0.0704 µM; in the test with NCI-H226 lung, 0.212 µM. In addition, the GI50 in the test with PC-3 prostate was 0.475 µM; in the test on SF-295 CNS, 0.273 µM; in the test with TK-10 renal, 0.429 µM; with U251 CNS, 0.0714 µM. The concentration for total growth inhibition (TGI) in the test with CCRF-CEM leukemia is 0.327 µM; with EKVX NSCLC, 4.98 µM; in the test with IGROV1 ovarian, 1.6 µM; with MDA-MB-435, 1.72 µM; with MOLT-4 leukemia, 0.351 µM; in the test with NCI-H226 lung, 2.64 µM. In addition, the TGI in the test on PC-3 prostate turned out to be 5.42 µM; with SF-295 CNS, 3.21 µM; in the test on TK-10 renal it was 4.51 µM; in the test with U251 CNS, 1.55 µM.

`CC[N+]1(C)CCC(O)(c2ccc(OC)cc2)C(C(=O)c2ccc(OC)cc2)C1` (configuration not stated): the TGI in the test on CCRF-CEM leukemia is 4.94 µM; in the test with EKVX NSCLC it was 41.6 µM; with IGROV1 ovarian, 41.2 µM; with MDA-MB-435 it was 31.1 µM; in the test with MOLT-4 leukemia, above 21.1 µM; in the test on NCI-H226 lung, 34.4 µM. Further, the concentration for total growth inhibition (TGI) came to 31.8 µM in the test with PC-3 prostate, 38.9 µM with SF-295 CNS, 20.4 µM with TK-10 renal and 33 µM in the test on U251 CNS.

As for `C=C1CCC2C(C)(COC(=O)CC)C(OC(=O)CC)CCC2(C)C1C/C=C1/C(=O)OCC1OC(=O)CC` (configuration not stated), the GI50 in the test on CCRF-CEM leukemia was 0.558 µM; with EKVX NSCLC it was 7.96 µM; in the test on IGROV1 ovarian, 1.9 µM; in the test with MDA-MB-435, 1.68 µM; in the test on MOLT-4 leukemia, 2.62 µM; in the test on NCI-H226 lung, 2.13 µM. Besides, the GI50 with PC-3 prostate was 2.17 µM; in the test with SF-295 CNS it was 1.7 µM; in the test on TK-10 renal it was 2.04 µM; with U251 CNS, 1.3 µM. The total growth inhibition concentration (TGI) in the test with CCRF-CEM leukemia was above 100 µM; in the test on EKVX NSCLC, 22.1 µM; in the test with IGROV1 ovarian, 3.69 µM; in the test on MDA-MB-435, 3.7 µM; in the test with MOLT-4 leukemia it was 11.6 µM; in the test with NCI-H226 lung, 4.1 µM. Further, the TGI in the test on PC-3 prostate stood at 4.91 µM; in the test with SF-295 CNS, 3.99 µM; with TK-10 renal it was 5.59 µM; in the test with U251 CNS, 2.59 µM.

`COc1ccc(-c2c3c(n(C4OC(COC(C)=O)C(OC(C)=O)C(OC(C)=O)C4OC(C)=O)c(=S)c2C#N)CC(C)(C)CC3=O)cc1` (configuration not stated): the GI50 in the test with CCRF-CEM leukemia is 21.5 µM and 71.7 µM; in the test on MDA-MB-435 it was 22.5 µM and 71.7 µM; in the test on TK-10 renal it was 39.5 µM and > 100 µM; in the test on U251 CNS it was 34.9 µM and > 100 µM. For the same molecule, the TGI in the test with CCRF-CEM leukemia is 57.2 µM and > 100 µM; in the test on EKVX NSCLC, 97.5 µM; with IGROV1 ovarian, above 100 µM; in the test with MDA-MB-435, 65.6 µM and > 100 µM; in the test on MOLT-4 leukemia, 57.1 µM and > 100 µM; in the test on NCI-H226 lung, above 100 µM. The TGI in the test on PC-3 prostate, in the test with SF-295 CNS, in the test on TK-10 renal and in the test on U251 CNS was above 100 µM in each case.

Turning to `COc1nc(N)nc2c1ncn2C1OC(CO)C(O)C1O` (configuration not stated), the GI50 in the test with CCRF-CEM leukemia was 8.46 µM; with EKVX NSCLC, above 5000 µM; with MDA-MB-435, above 5000 µM; in the test with MOLT-4 leukemia, 5.7 µM and 19.5 µM; in the test with NCI-H226 lung, above 5000 µM; with PC-3 prostate it was above 5000 µM. The GI50 with SF-295 CNS, with TK-10 renal and in the test with U251 CNS was above 5000 µM throughout. Besides, the TGI was above 5000 µM in the test with EKVX NSCLC; above 5000 µM in the test with IGROV1 ovarian; above 5000 µM in the test with MDA-MB-435; 2260 µM in the test with MOLT-4 leukemia; above 5000 µM with NCI-H226 lung; above 5000 µM in the test with PC-3 prostate. Besides, the TGI in the test on SF-295 CNS, in the test on TK-10 renal and in the test on U251 CNS was above 5000 µM in each case.
